Source: patent publication US4272437A, “Antibacterial agents, and 4-thio azetidinone intermediates” (priority 1979, dated 1981)
Values after ≈ are worked out from the molar mass of the structure shown. Where two headings read alike, the source gives them in different places.

How the values were obtained:
[1] = test system: Klebsiella species A20468; test: MIC, tube dilution, Klebsiella species A20468; type: cell-based; conditions: Klebsiella species (K. pneumoniae) A20468, overnight 37° C.; for MIC: read-out: Minimum Inhibitory Concentration (M.I.C.)
Text: (§1) Representative compounds of the present invention were subjected to in vitro antibiotic screening against a variety of microorganisms.

[2] = test system: Ser. marcescens A-20019; test: MIC, tube dilution, Serratia marcescens A20019; type: cell-based; conditions: overnight 37° C.; for MIC: Serratia marcescens, A20019, Serratia marcescens A20019, read-out: Minimum Inhibitory Concentration (M.I.C.)
Text: as §1

[3] = test system: E. coli A-15119; test: MIC, tube dilution, Escherichia coli A15119; type: cell-based; conditions: overnight 37° C.; for MIC: Escherichia coli, A15119, E. coli A15119, read-out: Minimum Inhibitory Concentration (M.I.C.)
Text: as §1

[4] = test system: Staph. aureus (Pen-Res) A-9606; test: MIC, tube dilution, Staphylococcus aureus A9606 (Pen-Res); type: cell-based; conditions: Staph. aureus A9606 (Pen-Res), overnight 37° C.; for MIC: Staphylococcus aureus, read-out: Minimum Inhibitory Concentration (M.I.C.)
Text: as §1

[5] = test system: Pr. morganii A-15153; test: MIC, tube dilution, Proteus morganii A15153; type: cell-based; conditions: overnight 37° C.; for MIC: Morganella morganii, A15153, Proteus morganii A15153, read-out: Minimum Inhibitory Concentration (M.I.C.)
Text: as §1

[6] = test system: Staph. aureus A-9537; test: MIC, tube dilution, Staphylococcus aureus A9537; type: cell-based; conditions: overnight 37° C., Nutrient Broth; for MIC: Staphylococcus aureus, A9537, Staph. aureus A9537, read-out: Minimum Inhibitory Concentration (M.I.C.)
Text: as §1

[7] = test system: Staph. aureus A-9537 and 50% serum; test: MIC, tube dilution, Staph. aureus A9537 + 50% serum; type: cell-based, Staphylococcus aureus; conditions: overnight 37° C.; for MIC: Staphylococcus aureus, read-out: Minimum Inhibitory Concentration (M.I.C.)
Text: as §1

[8] = test system: Staph. aureus (Meth-Res) A-15097; test: MIC, tube dilution, Staphylococcus aureus A15097 (Meth-Res); type: cell-based; conditions: Staph. aureus A15097 (Meth-Res), overnight 37° C.; for MIC: Staphylococcus aureus, read-out: Minimum Inhibitory Concentration (M.I.C.)
Text: as §1

[9] = test system: Proteus rettgeri A21203; test: MIC, tube dilution, Proteus rettgeri A21203; type: cell-based; conditions: overnight 37° C.; for MIC: Providencia rettgeri, A21203, Proteus rettgeri A21203, read-out: Minimum Inhibitory Concentration (M.I.C.)
Text: as §1

[10] = test system: Str. pyogenes A-9604; test: MIC, tube dilution, Streptococcus pyogenes A9604; type: cell-based; conditions: overnight 37° C., Nutrient Broth; for MIC: Streptococcus pyogenes, A9604, Str. pyogenes A9604, read-out: Minimum Inhibitory Concentration (M.I.C.)
Text: as §1

[11] = test system: K. pneumoniae A-15130; test: MIC, tube dilution, Klebsiella pneumoniae A15130; type: cell-based; conditions: overnight 37° C.; for MIC: Klebsiella pneumoniae, A15130, K. pneumoniae A15130, read-out: Minimum Inhibitory Concentration (M.I.C.)
Text: as §1

[12] = test system: Ps. aeruginosa A-21213; test: MIC, tube dilution, Pseudomonas aeruginosa A21213; type: cell-based; conditions: Pseudomonas aeruginosa A21213, overnight 37° C.; for MIC: read-out: Minimum Inhibitory Concentration (M.I.C.)
Text: as §1

[13] = test system: Str. pneumoniae A-9585; test: MIC, tube dilution, Streptococcus pneumoniae A9585; type: cell-based; conditions: overnight 37° C., Nutrient Broth; for MIC: Streptococcus pneumoniae, A9585, Str. pneumoniae A9585, read-out: Minimum Inhibitory Concentration (M.I.C.)
Text: as §1

[14] = test system: S. aureus A9537; test: In vivo protection of mice, lethal infection with S. aureus A9537; conditions: IM, 2 treatments; for ED50: Staphylococcus aureus, A9537, im, read-out: PD50
Procedure: Representative compounds of the present invention were also tested in vivo in mice and their PD50 (dose of compound in mg/kg required to protect 50% of the treated mice against an otherwise lethal infection of a micro-organism) values determined with respect to the test organisms shown below.

[15] = test system: Pr. mirabilis A-9900; test: MIC, tube dilution, Proteus mirabilis A9900; type: cell-based; conditions: overnight 37° C.; for MIC: Proteus mirabilis, A9900, Proteus mirabilis A9900, read-out: Minimum Inhibitory Concentration (M.I.C.)
Text: as §1

[16] = test system: E. coli A-20341-1; test: MIC, tube dilution, Escherichia coli A20341-1; type: cell-based
Text: as §1

[17] = test system: Ent. cloacae A-9656; test: MIC, tube dilution, Enterobacter cloacae A9656; type: cell-based; conditions: overnight 37° C.; for MIC: Enterobacter cloacae, A9656, Enterobacter cloacae A9656, read-out: Minimum Inhibitory Concentration (M.I.C.)
Text: as §1

[18] = test system: Ent. cloacae A-9659; test: MIC, tube dilution, Enterobacter cloacae A9659; type: cell-based; conditions: overnight 37° C.; for MIC: Enterobacter cloacae, A9659, Enterobacter cloacae A9659, read-out: Minimum Inhibitory Concentration (M.I.C.)
Text: as §1

[19] = test system: Proteus vulgaris A21559; test: MIC, tube dilution, Proteus vulgaris A21559; type: cell-based; conditions: overnight 37° C.; for MIC: Proteus vulgaris, A21559, Proteus vulgaris A21559, read-out: Minimum Inhibitory Concentration (M.I.C.)
Text: as §1

[20] = test system: Ps. aeruginosa A-9843A; test: MIC, tube dilution, Pseudomonas aeruginosa A9843A; type: cell-based; conditions: overnight 37° C.; for MIC: Pseudomonas aeruginosa, A9843A, read-out: Minimum Inhibitory Concentration (M.I.C.), Pseudomonas aeruginosa A9843A
Text: as §1

[21] = test system: Str. faecalis A-20688; test: MIC, tube dilution, Streptococcus faecalis A20688; type: cell-based; conditions: overnight 37° C.; for MIC: Enterococcus faecalis, A20688, Str. faecalis A20688, read-out: Minimum Inhibitory Concentration (M.I.C.)
Text: as §1

Question: What does the source list for NC1CCC(C2=C(C(=O)O)N3C(=O)C[C@H]3S2)C1 (single isomer, unassigned) [98 isomer B, 2-(3-Aminocyclopentyl)-penem-3-carboxylic acid]?
Answer: Minimum Inhibitory Concentration (M.I.C.) [1]: > 63 µg/mL; Minimum Inhibitory Concentration (M.I.C.) ([2]; Serratia marcescens A20019): 2 µg/mL; Minimum Inhibitory Concentration (M.I.C.) ([3]; E. coli A15119): 1 µg/mL; Minimum Inhibitory Concentration (M.I.C.) [4]: > 63 µg/mL; Minimum Inhibitory Concentration (M.I.C.) ([5]; Proteus morganii A15153): 4 µg/mL; Minimum Inhibitory Concentration (M.I.C.) ([6]; Staph. aureus A9537): .03 µg/mL; Minimum Inhibitory Concentration (M.I.C.) [7]: .25 µg/mL; Minimum Inhibitory Concentration (M.I.C.) [8]: > 63 µg/mL; Minimum Inhibitory Concentration (M.I.C.) ([9]; Proteus rettgeri A21203): 1 µg/mL; Minimum Inhibitory Concentration (M.I.C.) ([10]; Str. pyogenes A9604): .008 µg/mL; Minimum Inhibitory Concentration (M.I.C.) ([11]; K. pneumoniae A15130): 4 µg/mL; Minimum Inhibitory Concentration (M.I.C.) [12]: > 63 µg/mL; Minimum Inhibitory Concentration (M.I.C.) ([13]; Str. pneumoniae A9585): .008 µg/mL; PD50 ([14]; 9.1 × 10^5 organisms, listed as Ex. 98 (isomer B)): 0.12 mg/kg/treatment; Minimum Inhibitory Concentration (M.I.C.) ([15]; Proteus mirabilis A9900): 1 µg/mL; Minimum Inhibitory Concentration (M.I.C.) ([16]; E. coli A20341-1; overnight 37° C.): 16 µg/mL; Minimum Inhibitory Concentration (M.I.C.) ([17]; Enterobacter cloacae A9656): 2 µg/mL; Minimum Inhibitory Concentration (M.I.C.) ([18]; Enterobacter cloacae A9659): 8 µg/mL; Minimum Inhibitory Concentration (M.I.C.) ([19]; Proteus vulgaris A21559): 8 µg/mL; Minimum Inhibitory Concentration (M.I.C.) ([20]; Pseudomonas aeruginosa A9843A): 63 µg/mL; Minimum Inhibitory Concentration (M.I.C.) ([21]; Str. faecalis A20688): 8 µg/mL

Question: Which results are given for NCc1ccc(C2=C(C(=O)O)N3C(=O)CC3S2)cc1 (stereo not drawn) [Example 74, 2-(p-Aminomethylphenyl)penem-3-carboxylic Acid]?
Answer: MIC [1]: > 125 µg/mL; MIC [2]: 16 µg/mL (≈ 57.9 µM); MIC [3]: 8 µg/mL (≈ 29 µM); MIC [4]: 32 µg/mL (≈ 116 µM); MIC [5]: 16 µg/mL (≈ 57.9 µM); MIC [6]: 0.004 µg/mL (≈ 0.0145 µM); MIC [7]: 2 µg/mL; MIC [8]: 32 µg/mL (≈ 116 µM); MIC [9]: 16 µg/mL (≈ 57.9 µM); MIC [10]: 1 ng/mL (≈ 0.00362 µM); MIC [11]: 32 µg/mL (≈ 116 µM); MIC [12]: > 125 µg/mL; MIC [13]: 1 ng/mL (≈ 0.00362 µM); ED50 ([14]; 7.3 × 10^5 organisms): 0.82 mg/kg; MIC [15]: 4 µg/mL (≈ 14.5 µM); MIC ([16]; Escherichia coli, A203411; E. coli A20341-1; overnight 37° C.; read-out: Minimum Inhibitory Concentration (M.I.C.)): 125 µg/mL (≈ 452 µM); MIC [17]: 32 µg/mL (≈ 116 µM); MIC [18]: 32 µg/mL (≈ 116 µM); MIC [19]: 16 µg/mL (≈ 57.9 µM); MIC [20]: > 125 µg/mL; MIC [21]: 1 µg/mL (≈ 3.62 µM)

Question: With CCCC(N)C1=C(C(=O)O)N2C(=O)CC2S1 [Example 82, (1'R,5R and 1'S,5S) and (1'R,5S and 1'S,5R) 2-(1'-Aminobutyl)-penem-3-carboxylic Acid] as the compound, how does the MIC [1] read?
Answer: > 125 µg/mL

Question: And the MIC [2]?
Answer: 16 µg/mL (≈ 66 µM)

Question: And the MIC [3]?
Answer: 8 µg/mL (≈ 33 µM)

Question: What about the MIC [4] of the same compound?
Answer: 16 µg/mL (≈ 66 µM)

Question: What about the MIC [5] of the same compound?
Answer: 16 µg/mL (≈ 66 µM)

Question: And the MIC [6]?
Answer: 0.25 µg/mL (≈ 1.03 µM)

Question: What about the MIC [7] of the same compound?
Answer: 4 µg/mL

Question: And the MIC [8]?
Answer: 4 µg/mL (≈ 16.5 µM)

Question: And the MIC [9]?
Answer: 8 µg/mL (≈ 33 µM)

Question: What about the MIC [10] of the same compound?
Answer: 16 ng/mL (≈ 0.066 µM)

Question: What about the MIC [11] of the same compound?
Answer: 32 µg/mL (≈ 132 µM)

Question: And the MIC [12]?
Answer: > 125 µg/mL

Question: What about the MIC [13] of the same compound?
Answer: 16 ng/mL (≈ 0.066 µM)

Question: What about the ED50 ([14]; 1 × 10^6 organisms) of the same compound?
Answer: 1.25 mg/kg

Question: What about the MIC [15] of the same compound?
Answer: 4 µg/mL (≈ 16.5 µM)

Question: What about the MIC ([16]; Escherichia coli, A203411, E. coli A20341-1; overnight 37° C.; read-out: Minimum Inhibitory Concentration (M.I.C.)) of the same compound?
Answer: 32 µg/mL (≈ 132 µM)

Question: And the MIC [17]?
Answer: 32 µg/mL (≈ 132 µM)

Question: And the MIC [18]?
Answer: 63 µg/mL (≈ 260 µM)

Question: What about the MIC [19] of the same compound?
Answer: 8 µg/mL (≈ 33 µM)

Question: And the MIC [20]?
Answer: > 125 µg/mL

Question: What about the MIC [21] of the same compound?
Answer: 63 µg/mL (≈ 260 µM)
